From patent publication EP0572494B1, “COMPOSITION FOR USE IN TRANSDERMAL ADMINISTRATION” (priority 1991, dated 1992)

What was measured:
[1] = Urinary ibuprofen after topical application to shaved dorsal skin; format: in vivo, Hooded Wistar rats; conditions: topically applied composition according to the invention
Text: Four anesthetized Hooded Wistar rats were fitted with jugular and bladder catheters. […] Plastic covers were placed over the shaved area to prevent the animals ingesting the applied composition.
The animals were placed in metabolism cages and the urinary ibuprofin monitored.

[2] = according to Gruber et al; cited from earlier work
[3] = Particle size distribution by microscopic examination; format: physicochemical
Protocol: For the purposes of this specification the particle size of the particles was determined by microscopic examination. It should be assumed that the particles are of a constant thickness. The surface area of each visible particle face should be determined, and the particle size calculated by calculating the square root of the visible surface area of each particle.
(§1) The particle size of the ibuprofen crystallites precipitated during the cooling and stirring of the above formulation was compared with that of the unreacted ibuprofen powder. The respective particle sizes were determined by microscopic examination. It was assumed that the crystals were of a constant thickness. The surface area of each crystal was then determined, and the particle size calculated by calculating the square root of the measured surface area. This value was then taken to be the length of side. The total area of the counted particles was measured and the sum of the areas of the different size ranges estimated as a percentage of the total. The results were: Table 1
as §1, with “crystals” for “ibuprofen crystallites precipitated during the cooling and stirring of the above formulation was compared with that of the unreacted ibuprofen powder. The respective particle sizes”

CC(C)Cc1ccc(C(C)C(=O)O)cc1 (stereo not shown) [ibuprofen]
absorption kinetics [1]: zero order kinetics | time still being excreted after topical application [1]: more than 160 hours | solubility in water and conventional media [2]: only sparingly soluble

O=C1O[C@H]([C@@H](O)CO)C(O)=C1O [Unformulated Ascorbic Acid, ascorbic acid]
Percentage Particles in Size range ([3]; size range 10-20µm): 0.36 Percentage | Percentage Particles in Size range ([3]; size range 20-50µm): 0.57 Percentage | Percentage Particles in Size range ([3]; size range 50-100µm): 2.7 Percentage | Percentage Particles in Size range ([3]; size range >100µm): 96 Percentage
